{"source": "patent US20080009418A1", "about": "“Selective Inhibitors” (Alchemia LTD., priority 2004, published 2008)", "key": {"[1]": {"biological_target": "T1, Human δ-opioid (DOP) (Homo sapiens, UniProt P41143)", "T1 construct": "purchased Perkin Elmer Biosignal", "T1 sequence (P41143 whole entry)": "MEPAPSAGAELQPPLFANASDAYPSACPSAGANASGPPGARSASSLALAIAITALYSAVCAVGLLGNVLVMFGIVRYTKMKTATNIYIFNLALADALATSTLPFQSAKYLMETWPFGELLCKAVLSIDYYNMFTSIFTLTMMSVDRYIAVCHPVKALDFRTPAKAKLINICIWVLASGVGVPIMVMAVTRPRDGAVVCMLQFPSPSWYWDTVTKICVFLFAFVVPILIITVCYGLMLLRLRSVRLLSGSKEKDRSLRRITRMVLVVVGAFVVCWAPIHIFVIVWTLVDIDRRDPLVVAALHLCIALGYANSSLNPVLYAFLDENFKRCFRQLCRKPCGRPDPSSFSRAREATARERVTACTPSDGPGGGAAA", "test": "Radioligand binding, human δ-opioid (DOP) membranes, FlashPlate, [3H]-Bremazocine", "details": "compound at 10 μM, [3H]-Bremazocine", "how_it_was_run": "(§1)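 Cloned human receptor membranes were coated onto FlashPlate wells and incubated with radioligand and compound (added from a 0.5 mM DMSO daughter plate) for 1 hour at room temperature in the dark. Scintillation counting gave percent inhibition, with DMSO defining total and reference ligand defining non-specific binding.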"}, "[2]": {"biological_target": "T2, Human κ-Opioid (KOP) (Homo sapiens, UniProt P41145)", "T2 construct": "purchased Perkin Elmer Biosignal", "T2 sequence (P41145 whole entry)": "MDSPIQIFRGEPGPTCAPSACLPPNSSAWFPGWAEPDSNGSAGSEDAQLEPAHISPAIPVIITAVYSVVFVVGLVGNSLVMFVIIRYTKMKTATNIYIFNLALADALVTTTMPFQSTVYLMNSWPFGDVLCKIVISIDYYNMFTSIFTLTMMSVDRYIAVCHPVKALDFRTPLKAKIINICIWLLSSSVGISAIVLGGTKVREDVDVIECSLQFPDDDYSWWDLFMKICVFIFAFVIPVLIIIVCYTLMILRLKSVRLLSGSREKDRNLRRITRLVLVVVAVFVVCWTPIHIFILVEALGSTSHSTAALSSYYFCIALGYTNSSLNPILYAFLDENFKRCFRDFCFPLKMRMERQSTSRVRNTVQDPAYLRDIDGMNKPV", "test": "Radioligand binding, human κ-opioid (KOP) membranes, filtration, [3H]-Diprenorphine", "details": "compound at 10 μM, [3H]-Diprenorphine", "how_it_was_run": "(§2)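 Percent inhibition of radioligand binding measured on recombinant human membranes: NK1 with [125I]-Substance P, KOP with [3H]-Diprenorphine. Incubation 1 h at room temperature, then harvest onto 0.3% PEI-soaked filters, cold Tris-HCl pH 7.4 washes and scintillation counting; non-specific binding from reference ligand wells.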"}, "[3]": {"biological_target": "T3, Human Melanocortin (MC3) (Homo sapiens, UniProt P41968)", "T3 construct": "purchased Perkin Elmer Biosignal", "T3 sequence (P41968 whole entry)": "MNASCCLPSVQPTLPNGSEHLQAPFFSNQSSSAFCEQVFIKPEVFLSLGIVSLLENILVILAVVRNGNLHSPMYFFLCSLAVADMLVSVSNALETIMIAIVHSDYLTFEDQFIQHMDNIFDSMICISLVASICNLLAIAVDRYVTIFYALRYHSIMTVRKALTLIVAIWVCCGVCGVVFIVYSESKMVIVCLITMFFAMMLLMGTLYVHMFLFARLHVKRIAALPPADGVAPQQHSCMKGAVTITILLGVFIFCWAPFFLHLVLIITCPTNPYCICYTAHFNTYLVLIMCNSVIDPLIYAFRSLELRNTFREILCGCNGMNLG", "test": "Radioligand binding, human melanocortin MC3 membranes, FlashPlate, [125I]-NDP-αMSH", "details": "compound at 10 μM, [125I]-NDP-αMSH", "how_it_was_run": "as §1"}, "[4]": {"biological_target": "T4, Human Melanocortin (MC4) (Homo sapiens, UniProt P32245)", "T4 construct": "purchased Perkin Elmer Biosignal", "T4 sequence (P32245 whole entry)": "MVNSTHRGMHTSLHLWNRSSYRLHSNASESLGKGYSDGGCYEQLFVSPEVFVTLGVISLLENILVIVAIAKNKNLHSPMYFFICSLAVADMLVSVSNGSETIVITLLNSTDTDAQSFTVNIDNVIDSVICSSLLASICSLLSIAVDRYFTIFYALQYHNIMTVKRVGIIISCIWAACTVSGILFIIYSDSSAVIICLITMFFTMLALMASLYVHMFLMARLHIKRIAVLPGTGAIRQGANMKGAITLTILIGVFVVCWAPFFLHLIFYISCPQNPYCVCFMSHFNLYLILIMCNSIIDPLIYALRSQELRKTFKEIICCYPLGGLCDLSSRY", "test": "Radioligand binding, human melanocortin MC4 membranes, FlashPlate, [125I]-NDP-αMSH", "details": "compound at 10 μM, [125I]-NDP-αMSH", "how_it_was_run": "as §1"}, "[5]": {"biological_target": "T5, Human melanocortin (MC5) (Homo sapiens, UniProt P33032)", "T5 construct": "purchased Perkin Elmer Biosignal", "T5 sequence (P33032 whole entry)": "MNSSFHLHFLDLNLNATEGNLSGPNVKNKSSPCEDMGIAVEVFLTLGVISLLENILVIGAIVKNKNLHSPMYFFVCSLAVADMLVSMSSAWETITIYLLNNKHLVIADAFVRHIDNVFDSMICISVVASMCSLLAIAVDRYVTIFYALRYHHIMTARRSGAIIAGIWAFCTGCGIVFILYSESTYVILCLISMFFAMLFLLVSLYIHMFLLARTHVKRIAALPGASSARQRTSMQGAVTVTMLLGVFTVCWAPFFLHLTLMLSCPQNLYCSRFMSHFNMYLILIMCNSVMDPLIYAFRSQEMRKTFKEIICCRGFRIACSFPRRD", "test": "Radioligand binding, human melanocortin MC5 membranes, FlashPlate, [125I]-NDP-αMSH", "details": "compound at 10 μM, [125I]-NDP-αMSH", "how_it_was_run": "as §1"}, "[6]": {"biological_target": "T6, Human melanin-concentrating hormone (MCH1) (Homo sapiens, UniProt Q99705)", "T6 construct": "purchased Perkin Elmer Biosignal", "T6 sequence (Q99705 whole entry)": "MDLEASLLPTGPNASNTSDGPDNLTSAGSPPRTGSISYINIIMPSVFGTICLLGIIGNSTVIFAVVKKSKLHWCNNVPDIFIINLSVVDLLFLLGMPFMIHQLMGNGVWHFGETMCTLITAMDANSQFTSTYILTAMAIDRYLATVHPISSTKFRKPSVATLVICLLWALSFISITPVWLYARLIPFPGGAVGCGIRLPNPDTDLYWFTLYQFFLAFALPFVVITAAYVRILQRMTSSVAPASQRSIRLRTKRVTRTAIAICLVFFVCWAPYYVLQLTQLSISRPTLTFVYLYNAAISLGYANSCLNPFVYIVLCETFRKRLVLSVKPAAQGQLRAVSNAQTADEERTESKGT", "test": "Radioligand binding, human melanin-concentrating hormone MCH1 membranes, FlashPlate, [125I]-S36057", "details": "compound at 10 μM", "how_it_was_run": "as §1"}, "[7]": {"biological_target": "T7, Human μ-opioid (MOP) (Homo sapiens, UniProt P35372)", "T7 construct": "purchased Perkin Elmer Biosignal", "T7 sequence (P35372 whole entry)": "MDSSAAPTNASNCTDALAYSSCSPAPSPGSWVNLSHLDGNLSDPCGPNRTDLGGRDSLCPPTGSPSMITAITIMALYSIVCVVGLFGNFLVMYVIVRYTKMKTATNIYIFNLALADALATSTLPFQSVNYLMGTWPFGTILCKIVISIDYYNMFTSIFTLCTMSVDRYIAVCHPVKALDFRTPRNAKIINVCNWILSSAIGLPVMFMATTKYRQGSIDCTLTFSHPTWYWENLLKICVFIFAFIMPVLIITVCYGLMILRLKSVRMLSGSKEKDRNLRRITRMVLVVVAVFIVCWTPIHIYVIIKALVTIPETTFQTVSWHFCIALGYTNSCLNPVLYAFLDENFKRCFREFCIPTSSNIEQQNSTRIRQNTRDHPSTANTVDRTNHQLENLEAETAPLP", "test": "Radioligand binding, human μ-opioid (MOP) membranes, FlashPlate, [3H]-Naloxone", "details": "compound at 10 μM, [3H]-Naloxone", "how_it_was_run": "as §1"}, "[8]": {"biological_target": "T8, Human neurokinin (NK1) (Homo sapiens, UniProt P25103)", "T8 construct": "purchased Perkin Elmer Biosignal", "T8 sequence (P25103 whole entry)": "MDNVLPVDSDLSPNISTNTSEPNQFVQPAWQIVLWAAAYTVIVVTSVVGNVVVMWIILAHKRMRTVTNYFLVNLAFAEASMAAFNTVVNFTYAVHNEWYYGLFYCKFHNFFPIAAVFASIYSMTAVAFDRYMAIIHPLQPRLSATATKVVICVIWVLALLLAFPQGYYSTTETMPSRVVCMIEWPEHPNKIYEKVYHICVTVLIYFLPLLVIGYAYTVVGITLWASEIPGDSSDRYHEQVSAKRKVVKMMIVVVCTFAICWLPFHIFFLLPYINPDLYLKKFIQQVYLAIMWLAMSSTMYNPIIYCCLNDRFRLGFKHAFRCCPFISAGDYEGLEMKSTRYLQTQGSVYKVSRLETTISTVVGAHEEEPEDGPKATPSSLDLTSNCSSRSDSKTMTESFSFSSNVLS", "test": "Radioligand binding, human neurokinin NK1 membranes, filtration, [125I]-Substance P", "details": "compound at 10 μM, [125I]-Substance P", "how_it_was_run": "as §2"}, "[9]": {"biological_target": "T9, Human neuropeptide Y (NPY-Y1) (Homo sapiens, UniProt P25929)", "T9 construct": "purchased Perkin Elmer Biosignal", "T9 sequence (P25929 1-384)": "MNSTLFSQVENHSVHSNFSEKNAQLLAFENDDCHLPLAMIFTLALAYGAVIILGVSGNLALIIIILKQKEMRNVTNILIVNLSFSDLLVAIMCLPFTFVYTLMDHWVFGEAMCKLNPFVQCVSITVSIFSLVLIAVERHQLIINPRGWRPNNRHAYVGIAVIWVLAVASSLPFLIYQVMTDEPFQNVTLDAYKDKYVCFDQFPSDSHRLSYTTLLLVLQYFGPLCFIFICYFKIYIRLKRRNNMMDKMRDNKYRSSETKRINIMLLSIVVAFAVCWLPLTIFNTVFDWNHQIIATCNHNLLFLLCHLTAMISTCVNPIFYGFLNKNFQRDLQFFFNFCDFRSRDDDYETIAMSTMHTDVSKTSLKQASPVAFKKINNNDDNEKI", "test": "Radioligand binding, human neuropeptide Y NPY-Y1 membranes, FlashPlate, [125I]-PYY", "details": "compound at 10 μM, [125I]-PYY", "how_it_was_run": "as §1"}, "[10]": {"biological_target": "T10, Human opioid (ORL1) (Homo sapiens, UniProt P41146)", "T10 construct": "purchased Perkin Elmer Biosignal", "T10 sequence (P41146 whole entry)": "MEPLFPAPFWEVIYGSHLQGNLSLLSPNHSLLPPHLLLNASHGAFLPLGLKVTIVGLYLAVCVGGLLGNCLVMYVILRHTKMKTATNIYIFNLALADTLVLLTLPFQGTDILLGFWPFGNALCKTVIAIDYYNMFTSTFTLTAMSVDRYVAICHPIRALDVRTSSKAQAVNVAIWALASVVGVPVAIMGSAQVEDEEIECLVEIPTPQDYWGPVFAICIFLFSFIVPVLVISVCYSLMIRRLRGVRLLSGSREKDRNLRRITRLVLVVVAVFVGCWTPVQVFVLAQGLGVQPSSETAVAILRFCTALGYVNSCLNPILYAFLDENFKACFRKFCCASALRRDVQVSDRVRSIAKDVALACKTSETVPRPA", "test": "Radioligand binding, human opioid ORL1 membranes, FlashPlate, [125I]-Nociceptin", "details": "compound at 10 μM, [125I]-Nociceptin", "how_it_was_run": "as §1"}, "[11]": {"biological_target": "T11, Mouse urotensin (mUR2) (Mus musculus, UniProt Q8VIH9)", "T11 construct": "purchased Perkin Elmer Biosignal", "T11 sequence (Q8VIH9 1-385)": "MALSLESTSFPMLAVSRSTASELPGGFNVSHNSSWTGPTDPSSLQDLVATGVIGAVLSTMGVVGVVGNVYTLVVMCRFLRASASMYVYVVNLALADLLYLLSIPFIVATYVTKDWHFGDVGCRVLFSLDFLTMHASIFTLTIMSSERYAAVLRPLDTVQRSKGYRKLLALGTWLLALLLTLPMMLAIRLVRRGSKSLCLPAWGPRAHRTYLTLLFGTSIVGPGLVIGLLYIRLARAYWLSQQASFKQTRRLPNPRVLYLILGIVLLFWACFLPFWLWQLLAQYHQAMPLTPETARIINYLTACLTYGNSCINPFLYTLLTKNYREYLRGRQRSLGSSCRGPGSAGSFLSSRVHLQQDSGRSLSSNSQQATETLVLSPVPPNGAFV", "test": "Radioligand binding, mouse urotensin mUR2 membranes, FlashPlate, [125I]-Urotensin II", "details": "compound at 10 μM, [125I]-Urotensin II", "how_it_was_run": "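Cloned mouse urotensin (mUR2) receptor membranes from Perkin Elmer Biosignal were immobilized in FlashPlate microplates using a proprietary coating. Each well got 19.5 μl buffer, then 0.5 μl of DMSO, reference ligand, or compound. Adding 5 μl of [125I]-Urotensin II, diluted to 5× final concentration in binding buffer, started binding. Plates were sealed with TopSeal-A and incubated 1 hour at room temperature in the dark. Wells were counted for 30 seconds each on a TopCount after a 60-second delay, and percentage inhibition was calculated.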"}}, "data": [{"compound": "COCC1OC(OCc2ccccc2)C(NC(=O)CCCNC(=N)N)C(OCc2ccc3ccccc3c2)C1O", "note": "(stereo not shown) [compound 193]", "values": [{"measurement": "A1: inhibition of radioligand binding", "setting": "[1]; FlashPlate", "value": "− (“−” indicates less than 50% inhibition at 10 μM)"}, {"measurement": "A2: inhibition of radioligand binding", "setting": "[2]; filtration", "value": "− (“−” indicates less than 50% inhibition at 10 μM)"}, {"measurement": "A3: inhibition of radioligand binding", "setting": "[3]; FlashPlate", "value": "+ (“+” indicates greater than 50% inhibition at 10 μM)"}, {"measurement": "A4: inhibition of radioligand binding", "setting": "[4]; FlashPlate", "value": "+ (“+” indicates greater than 50% inhibition at 10 μM)"}, {"measurement": "A5: inhibition of radioligand binding", "setting": "[5]; FlashPlate", "value": "+ (“+” indicates greater than 50% inhibition at 10 μM)"}, {"measurement": "A6: inhibition of radioligand binding", "setting": "[6]; [125I]-S36057, FlashPlate", "value": "+ (“+” indicates greater than 50% inhibition at 10 μM)"}, {"measurement": "A7: inhibition of radioligand binding", "setting": "[7]; FlashPlate", "value": "− (“−” indicates less than 50% inhibition at 10 μM)"}, {"measurement": "A8: inhibition of radioligand binding", "setting": "[8]; filtration", "value": "+ (“+” indicates greater than 50% inhibition at 10 μM)"}, {"measurement": "A9: inhibition of radioligand binding", "setting": "[9]; FlashPlate", "value": "− (“−” indicates less than 50% inhibition at 10 μM)"}, {"measurement": "A10: inhibition of radioligand binding", "setting": "[10]; FlashPlate", "value": "− (“−” indicates less than 50% inhibition at 10 μM)"}, {"measurement": "A11: inhibition of radioligand binding", "setting": "[11]; FlashPlate", "value": "− (“−” indicates less than 50% inhibition at 10 μM)"}]}, {"compound": "COC[C@H]1OC(OCCc2ccccc2)[C@H](NC(=O)CCCN)[C@@H](OCc2ccc3ccccc3c2)[C@@H]1O", "note": "(single isomer, unassigned) [compound 346]", "values": [{"measurement": "A1: inhibition of radioligand binding, human δ-opioid (DOP)", "setting": "[1]", "value": "− (“−” indicates less than 50% inhibition at 10 μM)"}, {"measurement": "A2: inhibition of radioligand binding, human κ-opioid (KOP)", "setting": "[2]; 10 µM", "value": "+ (“+” indicates greater than 50% inhibition at 10 μM)"}, {"measurement": "A3: inhibition of radioligand binding, human melanocortin (MC3)", "setting": "[3]; 10 µM", "value": "+ (“+” indicates greater than 50% inhibition at 10 μM)"}, {"measurement": "A4: inhibition of radioligand binding, human melanocortin (MC4)", "setting": "[4]; 10 µM", "value": "+ (“+” indicates greater than 50% inhibition at 10 μM)"}, {"measurement": "A5: inhibition of radioligand binding, human melanocortin (MC5)", "setting": "[5]; 10 µM", "value": "+ (“+” indicates greater than 50% inhibition at 10 μM)"}, {"measurement": "A6: inhibition of radioligand binding, human melanin-concentrating hormone (MCH1)", "setting": "[6]; [125I]-S36057, 10 µM", "value": "+ (“+” indicates greater than 50% inhibition at 10 μM)"}, {"measurement": "A7: inhibition of radioligand binding, human μ-opioid (MOP)", "setting": "[7]; 10 µM", "value": "+ (“+” indicates greater than 50% inhibition at 10 μM)"}, {"measurement": "A8: inhibition of radioligand binding, human neurokinin (NK1)", "setting": "[8]", "value": "+ (“+” indicates greater than 50% inhibition at 10 μM)"}, {"measurement": "A9: inhibition of radioligand binding, human neuropeptide Y (NPY-Y1)", "setting": "[9]", "value": "− (“−” indicates less than 50% inhibition at 10 μM)"}, {"measurement": "A10: inhibition of radioligand binding, human opioid (ORL1)", "setting": "[10]; 10 µM", "value": "+ (“+” indicates greater than 50% inhibition at 10 μM)"}, {"measurement": "A11: inhibition of radioligand binding, mouse urotensin (mUR2)", "setting": "[11]; 10 µM", "value": "+ (“+” indicates greater than 50% inhibition at 10 μM)"}]}]}
